Tests used:
[1] = commercially available Form I prepared by prior art methods (U.S. Pat. No. 5,229,382); cited from earlier work
[2] = color stability of Olanzapine Form I on exposure at room temperature / in air; format: physicochemical; settings: Form I from Form E by rapid crystallization in methylene chloride-methanol and step-wise drying, at least 3 months
Excerpt: In another aspect of this invention the new poly-type Olanzapine Form E generated with rapid crystallization in methylene chloride-methanol along with step-wise drying techniques produces non-solvated anhydrous Form I of 2-methyl-4-(4-methyl-1-piperazinyl)-10H-thieno[2,3-b][1,5] benzodiazepine which is stable enough to be used commercially in pharmaceutical formulations.

[3] = solid-state stability of poly-type Form E at room temperature; format: physicochemical; settings: step-wise drying converts it to Form I
Excerpt: The new poly-type E is stable at room temperature but when subjected to step-wise drying techniques results in substantially pure Olanzapine Form I.

With `Cc1cc2c(s1)Nc1ccccc1N=C2N1CCN(C)CC1` [Olanzapine Form I, 2-methyl-4-(4-methyl-1-piperazinyl)-10H-thieno[2,3-b][1,5] benzodiazepine] as the compound, how does the “color change over time due to exposure in air” value [1] read?
Its value is “color is found to change over time”.

And the “color change during exposure at room temperature” value [2]?
The value was “No color change”.

With `Cc1cc2c(s1)Nc1ccccc1N=C2N1CCN(C)CC1` [poly-type E, 2-methyl-4-(4-methyl-1-piperazinyl)-10H-thieno[2,3-b][1,5] benzodiazepine] as the compound, how does the “stability at room temperature” value [3] read?
Its value is “stable”.

Reference: patent US20070173496A1, “Novel polymorph E of Olanzapine and preparation of anhydrous non-solvated crystalline polymorphic Form I of 2-methyl-4(4-methyl-1-piperazinyl)-10H-thieno[2,3-b][1,5] benzodiazepine (Olanzapine Form I) from the polymorphic Olanzapine Form E” (priority 2006, published 2007)
